pIC50: −log10 of the molar value.

The target in the assay is T1, ULK1 (Homo sapiens, UniProt O75385).
T1 sequence (O75385 1-1050): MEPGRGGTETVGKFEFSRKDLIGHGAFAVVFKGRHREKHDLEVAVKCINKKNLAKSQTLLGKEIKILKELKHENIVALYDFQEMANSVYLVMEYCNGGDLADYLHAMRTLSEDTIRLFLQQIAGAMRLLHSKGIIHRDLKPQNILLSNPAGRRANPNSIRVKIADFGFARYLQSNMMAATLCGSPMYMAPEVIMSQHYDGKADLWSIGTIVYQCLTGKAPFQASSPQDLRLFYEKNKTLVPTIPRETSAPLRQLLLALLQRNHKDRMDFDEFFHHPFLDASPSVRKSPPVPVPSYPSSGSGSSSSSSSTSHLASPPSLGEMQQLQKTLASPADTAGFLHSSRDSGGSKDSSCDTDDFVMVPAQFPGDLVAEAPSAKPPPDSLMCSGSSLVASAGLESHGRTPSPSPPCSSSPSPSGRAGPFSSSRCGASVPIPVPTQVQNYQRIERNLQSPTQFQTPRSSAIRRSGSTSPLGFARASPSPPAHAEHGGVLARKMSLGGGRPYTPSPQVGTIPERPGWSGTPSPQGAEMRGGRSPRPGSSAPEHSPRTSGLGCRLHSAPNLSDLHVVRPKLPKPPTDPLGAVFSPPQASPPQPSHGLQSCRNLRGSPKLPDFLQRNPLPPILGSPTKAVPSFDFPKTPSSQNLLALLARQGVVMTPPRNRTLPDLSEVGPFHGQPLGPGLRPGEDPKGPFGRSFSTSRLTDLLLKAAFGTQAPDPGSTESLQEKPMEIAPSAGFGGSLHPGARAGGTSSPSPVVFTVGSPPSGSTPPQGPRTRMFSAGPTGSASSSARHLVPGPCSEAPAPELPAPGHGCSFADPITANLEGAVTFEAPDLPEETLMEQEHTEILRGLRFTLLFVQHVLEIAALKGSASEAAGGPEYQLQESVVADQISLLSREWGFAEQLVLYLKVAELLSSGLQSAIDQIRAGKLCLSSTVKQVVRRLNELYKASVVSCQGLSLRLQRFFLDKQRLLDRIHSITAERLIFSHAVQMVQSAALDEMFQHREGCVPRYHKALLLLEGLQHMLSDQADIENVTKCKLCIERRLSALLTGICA
Put plainly: ULK1 inhibition assay. As to conditions: * = tested as a mixture of regioisomers. Type of assay: biochemical.
`FC(F)(F)c1cnc(Nc2ccc3c(c2)OCO3)nc1NC1CC1` [Compound 213]: the negative logarithm of the IC50 (pIC50) was more than 6.70. As to `COc1cc(Nc2ncc(Br)c(Oc3cccc4c3N(C(C)=O)CCC4)n2)cc(OC)c1OC` [Compound 335a], the pIC50 is less than 5.70. Consider `CNC(=O)c1ccccc1Nc1ccnc(Nc2cc(OC)c(OC)c(OC)c2)n1` [Compound 60], for which the pIC50 was more than 6.70. For `CNC(=O)c1ccccc1Nc1nc(Nc2ccc3c(c2)CCC(=O)N3)ncc1C(F)(F)F` [Compound 76] the value was more than 6.70; for `N#Cc1cnc(NC2CC2)nc1Nc1ccc2c(c1)CCC(=O)N2` [Compound 287], less than 5.70. For `O=C1CCc2cc(Nc3ncc(C(F)(F)F)c(Nc4cc(C5CCC5)[nH]n4)n3)ccc2N1` [Compound 271] the value was more than 6.70; for `FC(F)(F)c1cnc(Nc2ccc3ncoc3c2)nc1NC1CC1` [Compound 208a], more than 6.70; for `O=C1CCc2cc(Nc3ncc(C(F)(F)F)c(N4CC(F)(F)C4)n3)ccc2N1` [Compound 215], more than 6.70.

Turning to `COCCNc1nc(Nc2ccc3c(c2)CCC(=O)N3)ncc1C(F)(F)F` [Compound 151a], the pIC50 was more than 6.70. Turning to `COc1ccc(Nc2ncc(C(F)(F)F)c(O)n2)cc1` [Compound 105b], the pIC50 was less than 5.70. For `Brc1cnc(Nc2ccc3[nH]ccc3c2)nc1Nc1ccccn1` [Compound 154] the value was more than 6.70. For `CNC(=O)c1ccccc1Oc1nc(Nc2cccc(F)c2F)ncc1C(F)(F)F` [Compound 113] the value was less than 5.70; for `FC(F)(F)c1cnc(Nc2ccc3nc[nH]c3c2)nc1Nc1cc(C2CCC2)[nH]n1` [Compound 297], more than 6.70. For `O=C1CCc2cc(Nc3ncc(C(F)(F)F)c(NC4CCC4)n3)ccc2N1` [Compound 150a] the value was more than 6.70; for `FC(F)(F)c1cnc(Nc2ccon2)nc1NC1CC1` [Compound 214a], 5.70 to 6.70.

As to `O=C1CCc2cc(Nc3ncc(C(F)(F)F)c(Nc4ccccc4OC(F)F)n3)ccc2N1` [Compound 120a], the pIC50 was more than 6.70. For `COc1ccc(OC)c(Nc2ncc(C(F)(F)F)c(O)n2)c1` [Compound 109b] the value was less than 5.70; for `O=C1CCc2cc(Nc3ncnc(NC4CC4)n3)ccc2N1` [Compound 225], less than 5.70. For `COCC(C)(CN(C)C)Nc1nc(Nc2ccc3c(c2)CCC(=O)N3)ncc1C(F)(F)F` (stereo not drawn) [Compound 220c] the value was less than 5.70; for `O=C(C1CC1)N(C(=O)C1CC1)c1ccc(Nc2ncc(C(F)(F)F)c(NC3CC3)n2)cc1` [Compound 311], more than 6.70.

Consider `CNC(=O)c1ccccc1Oc1nc(Nc2ccccc2)ncc1Br` [Compound 111], for which the pIC50 is less than 5.70. For `COc1cc(Nc2nc(Oc3cccc4c3CCCC4)ncc2Br)cc(OC)c1OC` [Compound 330b] the value was less than 5.70; for `O=C1CCc2cc(Nc3nc(NC4CCC4)ncc3C(F)(F)F)ccc2N1` [Compound 150b], more than 6.70. For `CNC(=O)c1ccccc1Nc1nc(Nc2ccccc2C)ncc1Cl` [Compound 53] the value was less than 5.70; for `COc1cc(Nc2ncc(Br)c(Oc3ccccc3NC(=O)C3CC3)n2)cc(OC)c1OC` [Compound 281], more than 6.70. For `OC1Nc2ccc(Nc3ncc(C(F)(F)F)c(NC4CC4)n3)cc2O1` (stereo not drawn) [Compound 208b] the value was more than 6.70. Regarding `FC(F)(F)c1cnc(Nc2cnc3[nH]ccc3c2)nc1NC1CC1` [Compound 152a], the pIC50 was more than 6.70. For `COc1cc(Nc2ncc(Br)c(Oc3ccccc3NC(C)=O)n2)cc(OC)c1OC` [Compound 254a] the value was more than 6.70; for `CNC(=O)c1ccccc1Oc1nc(Nc2ccc(C)cc2Cl)ncc1C(F)(F)F` [Compound 107], less than 5.70; for `O=C1CCc2cc(Nc3ncc(C(F)(F)F)c(C#Cc4ccccc4)n3)ccc2N1` [Compound 64], less than 5.70. For `Cc1cnc(Nc2ccc3c(c2)CCC(=O)N3)nc1NCc1cccc(S(C)(=O)=O)c1` [Compound 67] the value was less than 5.70; for `COc1cccc(Nc2nc(Nc3ccc4c(c3)CCC(=O)N4)ncc2C(F)(F)F)c1` [Compound 119], more than 6.70; for `FC(F)(F)c1cnc(Nc2ccc3c(c2)CCNC3)nc1NC1CC1` [Compound 309], more than 6.70. For `CCC(=O)c1ccccc1Oc1nc(Nc2cc(OC)c(OC)c(OC)c2)ncc1Br` [Compound 260] the value was more than 6.70; for `Oc1ncc(C(F)(F)F)c(Nc2ccccc2N2CCOCC2)n1` [Compound 118c], less than 5.70; for `O=C1NC(=O)c2cc(Nc3ncc(C(F)(F)F)c(NC4CC4)n3)ccc21` [Compound 314], more than 6.70.

With `COc1cc(Nc2ncc(C(F)(F)F)c(Oc3ccccc3N)n2)cc(OC)c1OC` [Compound 346], the pIC50 is more than 6.70.

`CNC(=O)c1ccccc1Oc1nc(Nc2cc(Br)ccc2C)ncc1Br` [Compound 112]: the pIC50 is less than 5.70. For `O=C1CCc2cc(Nc3ncc(C(F)(F)F)c(NC4CNC4)n3)ccc2N1` [Compound 198a] the value was 5.70 to 6.70; for `COc1cc(Nc2ncc(Br)c(Nc3ccccc3)n2)cc(OC)c1OC` [Compound 293], more than 6.70.

Regarding `CNC(=O)c1ccccc1Nc1nc(Nc2ccc3c(c2)OCO3)ncc1Cl` [Compound 49], the pIC50 is more than 6.70. For `CS(=O)(=O)c1cccc(CNc2nc(Nc3ccc4c(c3)CCC(=O)N4)ncc2F)c1` [Compound 56] the value was less than 5.70. Take `CNC(=O)c1ccc(OC)cc1Oc1ncc(Br)c(Nc2cc(OC)c(OC)c(OC)c2)n1` [Compound 318b]: the pIC50 is less than 5.70. For `O=C1CCc2cc(Nc3nc(Oc4ccccc4)ncc3C(F)(F)F)ccc2N1` [Compound 300b] the value was less than 5.70; for `CNC(=O)c1ccccc1Oc1nc(Nc2ccccc2)ncc1C(F)(F)F` [Compound 99], less than 5.70; for `FC(F)(F)c1cnc(Nc2ccc3c(c2)OCO3)nc1NCC1CC1` [Compound 167b], more than 6.70.

For `O=C1CCc2cc(Nc3ncc(C(F)(F)F)c(NC4CN(c5nc(Nc6ccc7c(c6)CCC(=O)N7)ncc5C(F)(F)F)C4)n3)ccc2N1` [Compound 198b], the pIC50 was less than 5.70. For `Fc1c(Nc2nc(Nc3ccc4c(c3)OCO4)ncc2C(F)(F)F)cccc1C(F)(F)F` [Compound 141b] the value was more than 6.70; for `O=c1[nH]c2ccc(Nc3nccc(NC4CC4)n3)cc2[nH]1` [Compound 232], less than 5.70; for `O=C1CCc2cc(Nc3ncc(C(F)(F)F)c(Nc4ccc5c(c4)CCC5)n3)ccc2N1` [Compound 129], more than 6.70. For `COc1c(C)cnc(CNc2nc(Nc3ccc4c(c3)CCC(=O)N4)ncc2C(F)(F)F)c1C` [Compound 82], the pIC50 was more than 6.70.

For `CC(CCl)Nc1nc(Nc2ccc3c(c2)CCC(=O)N3)ncc1C(F)(F)F` (stereo not drawn) [Compound 183c], the negative logarithm of the IC50 (pIC50) was less than 5.70.

In the case of `O=C1CCc2cc(Nc3ncc(C(F)(F)F)c(N(CCO)CCO)n3)ccc2N1` [Compound 212a], the pIC50 was less than 5.70. On to `O=c1[nH]c2ncc(Nc3nc(Nc4ccc5c(c4)OCCO5)ncc3Br)cc2o1` [Compound 192], for which the pIC50 is more than 6.70. For `COc1cc(Nc2nc(Oc3cccc4cc[nH]c34)ncc2Br)cc(OC)c1OC` [Compound 329b] the value was less than 5.70; for `Nc1ccc(Nc2ncc(C(F)(F)F)c(NC3CC3)n2)cc1` [Compound 304a], more than 6.70. For `COc1ccc(Nc2nc(Nc3cc(OC)c(OC)c(OC)c3)ncc2Br)cn1` [Compound 25], the pIC50 is more than 6.70. As for `COc1cc(Nc2ncc(Br)c(Oc3ccccc3C(=O)N(C)C)n2)cc(OC)c1OC` [Compound 245], the pIC50 was more than 6.70. As for `FC(F)(F)c1cnc(NCC2CC2)nc1Nc1ccc2c(c1)OCO2` [Compound 167a], the pIC50 was more than 6.70. `CNC(=O)c1ccccc1Nc1nc(Nc2cc(OC)ccc2C)ncc1C(F)(F)F` [Compound 42]: the pIC50 is more than 6.70. For `Cc1ccc(Nc2nc(Nc3ccc4c(c3)CCC(=O)N4)ncc2C(F)(F)F)cc1C` [Compound 125] the value was more than 6.70; for `O=C1CCc2cc(Nc3ncc(C(F)(F)F)c(OC4Cc5ccccc5C4)n3)ccc2N1` [Compound 180a], more than 6.70; for `CSc1ccccc1Nc1ncc(C(F)(F)F)c(Nc2ccccc2SC)n1` [Compound 116b], less than 5.70. For `COc1cccc(Nc2ncc(Cl)c(Nc3cccc(OC)c3)n2)c1` [Compound 143b] the value was more than 6.70; for `CN(c1nc(Nc2ccc3c(c2)CCC(=O)N3)ncc1C(F)(F)F)C1CC1` [Compound 202], more than 6.70; for `O=C1CCc2cc(Nc3ncc(C(F)(F)F)c(NCCO)n3)ccc2N1` [Compound 197], more than 6.70.

For orientation: pIC50 means the negative decadic logarithm of the IC50, by convention in mol/L.

These data come from patent publication US20230130766A1 (SALK INSTITUTE FOR BIOLOGICAL STUDIES, priority 2020, published 2023).
